Test systems include NCI-H460 lung; COLO 205 colon; MDA-MB-231 breast; OVCAR-5 ovarian; RPMI-8226 leukemia; HOP-62 NSCLC; OVCAR-4 ovarian; TK-10 renal.
Common to all, as to experiment: NCI anticancer screen, dose series, 48 h

The results in this text go back to PubChem BioAssay (NCI).

Several values for one entry are separate records, joined by “and”; a condition that tells them apart may be missing. Identical values can stand only once.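 Protocol summary: plate cells (96-well), add compound at 5 concentrations, incubate 48 h, interpolate endpoints linearly. Abbreviation: GI50, concentration required for 50% inhibition of growth. At the TGI there is no net growth.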 Some results are limits rather than exact numbers.

As for `O=c1[nH]c2ccccc2n1C1CCNCC1`, the GI50 with NCI-H460 lung, with COLO 205 colon, in the test with MDA-MB-231 breast, in the test on OVCAR-5 ovarian, in the test with RPMI-8226 leukemia and in the test on HOP-62 NSCLC was more than 100 µM in each case. In addition, the GI50 in the test on OVCAR-4 ovarian and with TK-10 renal was more than 100 µM in each case. Moreover, the TGI in the test on NCI-H460 lung, in the test on COLO 205 colon, in the test on MDA-MB-231 breast, in the test on OVCAR-5 ovarian, in the test with RPMI-8226 leukemia and in the test with HOP-62 NSCLC was more than 100 µM each time. For the same compound, the TGI with OVCAR-4 ovarian and in the test on TK-10 renal was more than 100 µM each time.
Take `O=C(N/N=C/c1ccc(Cl)cc1)c1ccc(NC(=O)c2ccccn2)cc1`: the GI50 with NCI-H460 lung was 8.2 µM; in the test on COLO 205 colon, more than 100 µM; with MDA-MB-231 breast it was 27.3 µM; in the test with OVCAR-5 ovarian it was 68 µM; with RPMI-8226 leukemia, more than 100 µM; in the test on HOP-62 NSCLC, 18.2 µM. Also, the GI50 is 3.07 µM with OVCAR-4 ovarian and 16.6 µM with TK-10 renal. Moreover, the TGI in the test on NCI-H460 lung was 24.6 µM; in the test on COLO 205 colon it was more than 100 µM; with MDA-MB-231 breast it was more than 100 µM; in the test on OVCAR-5 ovarian, more than 100 µM; with RPMI-8226 leukemia, more than 100 µM; with HOP-62 NSCLC, 91.3 µM. Moreover, the TGI in the test on OVCAR-4 ovarian was determined as 10.6 µM; in the test with TK-10 renal, 46.8 µM.
Consider `COc1cc2c(c3oc(-c4ccc(O)cc4)c(O)c(=O)c13)CCC(C)(C)O2`, for which the GI50 with NCI-H460 lung is 0.0996 µM; in the test with COLO 205 colon, 2.18 µM; in the test on MDA-MB-231 breast, 0.101 µM; in the test on OVCAR-5 ovarian, 0.229 µM; in the test on RPMI-8226 leukemia, 0.305 µM; in the test on HOP-62 NSCLC, 0.0712 µM. The values for the GI50 in the test on OVCAR-4 ovarian and in the test on TK-10 renal were 0.9 µM and 0.5 µM, respectively. Moreover, the TGI worked out at 0.351 µM with NCI-H460 lung; 5.02 µM with COLO 205 colon; 0.312 µM with MDA-MB-231 breast; 0.622 µM in the test on OVCAR-5 ovarian; 0.787 µM in the test with RPMI-8226 leukemia; 0.165 µM with HOP-62 NSCLC. For the same compound, the TGI in the test on OVCAR-4 ovarian is 2.88 µM; with TK-10 renal, more than 100 µM.
Consider `COc1cccc2c1nc(C(F)F)n2-c1nc(-c2ccc(NS(=O)(=O)CCN(C)C)cc2)nc(N2CCOCC2)n1`, for which the GI50 in the test on NCI-H460 lung was 0.0883 µM; in the test on COLO 205 colon, 0.0908 µM; in the test on MDA-MB-231 breast, 0.617 µM; in the test on OVCAR-5 ovarian, 0.0909 µM; with RPMI-8226 leukemia, 0.272 µM; in the test with HOP-62 NSCLC it was 0.123 µM. In addition, the GI50 with OVCAR-4 ovarian was 0.138 µM; with TK-10 renal, 0.0597 µM. The TGI in the test on NCI-H460 lung turned out to be 1.33 µM; with COLO 205 colon, 2.64 µM; in the test on MDA-MB-231 breast, 37.2 µM; with OVCAR-5 ovarian, 17.3 µM; in the test with RPMI-8226 leukemia, 2.41 µM; with HOP-62 NSCLC it was 6.56 µM. The TGI in the test with OVCAR-4 ovarian is 2.58 µM; in the test on TK-10 renal it was 0.615 µM.
As for `COc1ccc(C2=NN(C(N)=S)C(c3ccc4c(c3)OCO4)C2)cc1` (stereo unspecified), the GI50 in the test with NCI-H460 lung was 2.6 µM; with COLO 205 colon, 3.39 µM; in the test on MDA-MB-231 breast, 4.71 µM; with OVCAR-5 ovarian, 2.79 µM; in the test with RPMI-8226 leukemia, 1.88 µM; with HOP-62 NSCLC it was 3.56 µM. For the same compound, the GI50 in the test with OVCAR-4 ovarian is 3.4 µM; with TK-10 renal, 2.47 µM. Moreover, the TGI in the test on NCI-H460 lung is 6.83 µM; in the test on COLO 205 colon, 11.5 µM; in the test with MDA-MB-231 breast, 65.7 µM; with OVCAR-5 ovarian, 21.9 µM; in the test with RPMI-8226 leukemia it was 6.33 µM; in the test on HOP-62 NSCLC, more than 100 µM. Besides, the TGI is more than 100 µM with OVCAR-4 ovarian and 9.54 µM with TK-10 renal.
For the compound `Cc1ccc(NC(=O)c2ccc(CN3CCN(C)CC3)cc2)cc1Nc1nc(-c2cccnc2)cs1`, the GI50 was 7.33 µM and 5.34 µM in the test with NCI-H460 lung; 8.14 µM and 3.69 µM in the test on COLO 205 colon; 11.1 µM and 4.43 µM in the test on MDA-MB-231 breast; 16.6 µM and > 10 µM with OVCAR-5 ovarian; 3.19 µM and 2.31 µM in the test with RPMI-8226 leukemia; 16.3 µM and > 10 µM with HOP-62 NSCLC. Also, the GI50 was 11.6 µM and 7.8 µM in the test on OVCAR-4 ovarian; 16.8 µM and > 10 µM in the test on TK-10 renal. Besides, the TGI is 22.5 µM and > 10 µM in the test with NCI-H460 lung; 22.6 µM and > 10 µM in the test with COLO 205 colon; 29.2 µM and > 10 µM in the test on MDA-MB-231 breast; 31.1 µM and > 10 µM in the test on OVCAR-5 ovarian; 18.2 µM and > 10 µM with RPMI-8226 leukemia; 29.9 µM and > 10 µM in the test with HOP-62 NSCLC. Moreover, the TGI was 26.5 µM and > 10 µM with OVCAR-4 ovarian; 30.6 µM and > 10 µM with TK-10 renal.
As to `O=c1c2ccccc2nc(-c2cccc([N+](=O)[O-])c2)n1O`, the TGI was more than 100 µM with NCI-H460 lung; more than 100 µM in the test with COLO 205 colon; more than 100 µM in the test with MDA-MB-231 breast; more than 100 µM in the test on OVCAR-5 ovarian; more than 33.7 µM in the test on RPMI-8226 leukemia; more than 100 µM with HOP-62 NSCLC. Also, the TGI with OVCAR-4 ovarian and with TK-10 renal was more than 100 µM each time.
Take `CC1=C(CCCOC(=O)[C@H](N)CC(C)C)C2=C(C)C3(CC3)[C@@](C)(O)C(=O)C2=C1`: the GI50 in the test on NCI-H460 lung was 0.375 µM; in the test with COLO 205 colon it was 1.49 µM; in the test with MDA-MB-231 breast, 2.03 µM; with OVCAR-5 ovarian it was 1.94 µM; in the test with RPMI-8226 leukemia, 21.2 µM; with HOP-62 NSCLC it was 1.61 µM. The values for the GI50 in the test on OVCAR-4 ovarian and in the test with TK-10 renal were 1.54 µM and 2.88 µM, respectively. In addition, the TGI in the test with NCI-H460 lung was found to be 11.1 µM; in the test with COLO 205 colon it was 3.42 µM; in the test on MDA-MB-231 breast it was 6.42 µM; with OVCAR-5 ovarian, 11.8 µM; with RPMI-8226 leukemia, 57.1 µM; with HOP-62 NSCLC, 5.42 µM. Moreover, the TGI in the test on OVCAR-4 ovarian was 21.6 µM; with TK-10 renal, 7.92 µM.
Turning to `Cn1cc(C2=C(c3ccsc3)C(=O)NC2=O)c2ccccc21`, the GI50 in the test on NCI-H460 lung, in the test on COLO 205 colon, in the test on MDA-MB-231 breast, in the test on OVCAR-5 ovarian, in the test on RPMI-8226 leukemia and in the test with HOP-62 NSCLC was more than 25 µM in each case. In addition, the GI50 in the test with OVCAR-4 ovarian and with TK-10 renal was more than 25 µM each time. Besides, the TGI with NCI-H460 lung, in the test with COLO 205 colon, with MDA-MB-231 breast, in the test on OVCAR-5 ovarian, in the test with RPMI-8226 leukemia and with HOP-62 NSCLC was more than 25 µM in each case. Further, the TGI in the test on OVCAR-4 ovarian and in the test on TK-10 renal was more than 25 µM in each case.
